Laboratory results taken from publication PMC9413219 (Journal of Agricultural and Food Chemistry, 2022).

The compounds below were run on rumen inoculum from fistulated cows (assay: In vitro batch culture incubation of a Senecio PA mixture with rumen inoculum). Settings: incubation with rumen inoculum up to 20 h.
Type: in vitro ADME

| Structure (SMILES) | degradation rate in rumen incubation (half-life ranking) |
| --- | --- |
| C/C=C1/C[C@@H](C)[C@@](C)(O)C(=O)OCC2=CCN3CC[C@@H](OC1=O)[C@@H]23 [senecionine] | fastest degradation |
| C/C=C1/C[C@@H](C)[C@@](C)(O)C(=O)OC/C2=C/CN(C)CC[C@@H](OC1=O)C2=O [senkirkine] | slower degradation rates |
| C=C1C/C(=C/C)C(=O)O[C@@H]2CCN3CC=C(COC(=O)[C@]1(C)O)[C@H]23 [seneciphylline] | fastest degradation |
| C/C=C1/C[C@@]2(CO)O[C@@]2(C)C(=O)OCC2=CCN3CC[C@@H](OC1=O)[C@@H]23 [erucifoline] | ranged in the middle |
